Test results from ChEMBL document CHEMBL1201862, “PubChem BioAssay data set” (2004).
Values belong to the compound of their own block, whether it stands above or below them. The source made the active and inactive calls.

How the values were obtained:
[1] = molecular target: NAD-dependent protein deacylase sirtuin-5, mitochondrial (Homo sapiens, UniProt Q9NXA8); assay: SIRT5 desuccinylase inhibitors, dose response, biochemical, fluorescence imaging, cherry-pick, set 5 (AID 720591);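 further: desuccinylation of succinyl peptide AMC substrate read as fluorescence after trypsin release; potency of inhibitors that lower fluorescence and may act on trypsin instead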
[2] = molecular target: Disintegrin and metalloproteinase domain-containing protein 17 (Homo sapiens, UniProt P78536); assay: ADAM17 protease inhibitors, dose response, counter-screen for ADAM10 exosite inhibitor project, biochemical, quenched FRET substrate (AID 743253)
[3] = molecular target: T1, Heat shock factor protein 1 (Mus musculus, UniProt P38532); assay: HSF1 potentiators in luciferase reporter cells, confirmation, cell-based, NIH3T3, luminescence, dose retest (AID 435004); format: functional;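 further: stress induced by proteasome inhibitor MG132 added 30 min after compound; luciferase reporter driven by HSF1 response element in NIH3T3 cells; actives raise luminescence as potentiators of the MG132 stress response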
T1 sequence (P38532 whole entry): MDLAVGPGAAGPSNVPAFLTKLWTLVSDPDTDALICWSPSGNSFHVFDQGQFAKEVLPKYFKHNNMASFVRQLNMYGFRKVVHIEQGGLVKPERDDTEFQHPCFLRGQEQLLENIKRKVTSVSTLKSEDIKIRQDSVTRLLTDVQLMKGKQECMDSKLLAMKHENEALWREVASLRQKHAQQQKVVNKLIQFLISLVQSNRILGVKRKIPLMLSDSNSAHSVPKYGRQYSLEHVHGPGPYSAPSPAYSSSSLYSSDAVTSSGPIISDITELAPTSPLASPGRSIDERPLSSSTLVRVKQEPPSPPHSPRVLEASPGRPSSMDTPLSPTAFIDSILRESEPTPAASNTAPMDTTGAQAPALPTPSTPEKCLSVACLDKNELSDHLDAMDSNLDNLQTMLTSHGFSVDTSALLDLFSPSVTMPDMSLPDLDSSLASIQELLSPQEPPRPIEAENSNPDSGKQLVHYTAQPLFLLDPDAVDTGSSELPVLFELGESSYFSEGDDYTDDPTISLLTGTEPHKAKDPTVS

[4] = molecular target: T2, Oxysterols receptor LXR-beta (Homo sapiens, UniProt P55055); format: functional, cell-based;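 further: agonist activity at LXR measured by a cell-based luminescence readout across a dose range, run as a counterscreen for daf-12 agonists; HEK293 cells with Gal4-LXR fusion and GAL4-driven luciferase reporter; potency for activation of Gal4-LXR reporter so compounds are agonists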
T2 sequence (P55055 whole entry): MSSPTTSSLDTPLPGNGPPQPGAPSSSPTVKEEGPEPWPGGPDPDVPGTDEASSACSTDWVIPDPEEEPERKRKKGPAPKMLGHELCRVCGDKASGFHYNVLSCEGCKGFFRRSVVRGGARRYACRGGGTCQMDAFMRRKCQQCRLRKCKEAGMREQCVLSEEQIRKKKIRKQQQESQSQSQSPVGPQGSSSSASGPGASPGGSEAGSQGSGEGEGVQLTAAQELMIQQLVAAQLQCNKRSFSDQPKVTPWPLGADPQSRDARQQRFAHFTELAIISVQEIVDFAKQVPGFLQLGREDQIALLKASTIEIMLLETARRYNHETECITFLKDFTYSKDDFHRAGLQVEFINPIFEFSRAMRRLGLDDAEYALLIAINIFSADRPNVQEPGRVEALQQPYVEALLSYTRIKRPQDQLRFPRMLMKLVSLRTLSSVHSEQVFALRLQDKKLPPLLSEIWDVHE

[5] = molecular target: T3, Rac GTPase-activating protein 1 (Homo sapiens, UniProt Q9H0H5); assay: MgcRacGAP GTPase-activating activity inhibitors, confirmation, biochemical, ADP Hunter fluorescence, primary and confirmatory (AID 624330); format: functional
T3 sequence (Q9H0H5 whole entry): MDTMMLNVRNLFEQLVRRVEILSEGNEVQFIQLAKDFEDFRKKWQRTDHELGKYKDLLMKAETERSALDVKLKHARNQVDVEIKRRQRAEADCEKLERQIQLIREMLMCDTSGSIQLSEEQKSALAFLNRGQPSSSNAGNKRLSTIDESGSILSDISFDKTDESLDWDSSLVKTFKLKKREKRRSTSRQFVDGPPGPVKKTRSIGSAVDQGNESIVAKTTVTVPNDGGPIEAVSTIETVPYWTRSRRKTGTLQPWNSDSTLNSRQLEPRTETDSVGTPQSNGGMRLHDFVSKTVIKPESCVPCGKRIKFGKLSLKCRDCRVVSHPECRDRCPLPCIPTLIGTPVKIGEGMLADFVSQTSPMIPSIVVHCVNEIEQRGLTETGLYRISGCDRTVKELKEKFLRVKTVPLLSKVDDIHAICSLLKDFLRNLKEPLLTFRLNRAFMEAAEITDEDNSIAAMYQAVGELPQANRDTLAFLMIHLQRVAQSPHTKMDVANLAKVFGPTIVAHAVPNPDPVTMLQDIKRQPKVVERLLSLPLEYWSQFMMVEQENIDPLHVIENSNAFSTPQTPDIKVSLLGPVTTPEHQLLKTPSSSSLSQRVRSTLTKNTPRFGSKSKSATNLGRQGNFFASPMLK

[6] = ADAM10 inhibitors, peptide cleavage, dose response, biochemical, QFRET (AID 743254);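 further: ADAM10 enzyme with the DM2 quenched FRET peptide as substrate; EDANS fluorescence gain as the protease cuts the substrate; inhibitor potency against ADAM10 proteolytic activity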
Paired box protein Pax-8 = Paired box protein Pax-8 (Homo sapiens, UniProt Q06710); assay: inhibitors of PAX8-driven TPO luciferase reporter, dose response, RMG-I cells, cherry-pick (AID 687027); format: functional, cell-based;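 further: luciferase reporter driven by Pax8 target thyroperoxidase promoter measured by SteadyGlo luminescence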
[7] = PAX2 cell-based inhibition, dose response, selectivity assay for PAX8 inhibitor project, plate reader, dry powder samples (AID 743048); format: functional;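 further: HEK293 cells carrying a WT1 promoter luciferase reporter driven by expressed Pax2; potency is for inhibition of Pax2 driven reporter signal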
[8] = cytotoxicity in COV362 ovarian cancer cells, dose response, cytotoxicity control for PAX8 inhibitor project, cell-based, plate reader, dry powder, SA12 (AID 743144); format: functional
[9] = IOSE-T80 ovarian epithelial cell cytotoxicity, dose response, cytotoxicity control for PAX8 inhibitor project, plate reader, dry powder samples (AID 743045); format: functional, cell-based
[10] = NIH:OVCAR-3 ovarian cancer cell cytotoxicity, dose response, PAX8 inhibitor project, plate reader, dry powder samples (AID 743044); format: functional, cell-based
[11] = PAX5 activity inhibitors, dose response, selectivity assay for PAX8 inhibitor project, cell-based, plate reader, dry powder samples (AID 743047); format: functional;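 further: HEK293 cells carrying a Pax5 driven CD19 promoter luciferase reporter; potency of inhibitors that lower reporter luminescence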
[12] = IGROV1 ovarian cancer cell cytotoxicity, dose response, PAX8 inhibitor project, plate reader, dry powder samples (AID 743043); format: functional, cell-based; settings: IGROV-1
[13] = cytotoxicity in OVCAR4 cells, dose response, cytotoxicity control for PAX8 inhibitor project, cell-based, plate reader, dry powder, SA11 (AID 743150); format: functional; settings: OVCAR-4
[14] = cytotoxicity in COV434 cells, dose response, cytotoxicity control for PAX8 inhibitor project, cell-based, plate reader, dry powder, SA7 (AID 743145); format: functional
[15] = cytotoxicity in OV-90 ovarian cancer cells, dose response, PAX8 inhibitor project, cell-based, plate reader, dry powder, SA8 (AID 743149); format: functional
[16] = cytotoxicity in OVCAR8 ovarian cancer cells, dose response, PAX8 project, cell-based, plate reader, dry powder samples (AID 743197); format: functional; settings: OVCAR-8
[17] = cytotoxicity dependent on PAX8, dose response, cell-based, plate reader, dry powder (AID 743049); format: functional
[18] = P. falciparum 3D7-ScDHODH growth inhibitors, dose response, SYBR Green, dry powder samples (AID 1159570); format: functional, cell-based;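 further: parasite growth measured after 72 hours of compound exposure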
[19] = HepG2 cell cytotoxicity, dose response, cytotoxicity control, plate reader, dry powder samples (AID 1159569); format: functional, cell-based;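 further: inhibitor potency with signal falling toward the positive control level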
[20] = P. falciparum Dd2 growth inhibitors, dose response, SYBR Green, cherry-picked samples (AID 1159567); format: functional, cell-based
[21] = P. falciparum Dd2 growth inhibitors, dose response, SYBR Green, dry powder samples (AID 1159566); format: functional, cell-based;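 further: potency for growth inhibition with lower SYBR green DNA signal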
[22] = HepG2 cell cytotoxicity, dose response, cytotoxicity control, cherry-picked samples (AID 1159577); format: functional, cell-based
[23] = P. falciparum ATP4 D1247Y mutant growth inhibitors, dose response, NITD609-resistant line, SYBR Green, dry powder (AID 1159571); format: functional, cell-based;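 further: parasites synchronized at ring stage by sorbitol before testing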
[24] = molecular target: Potassium channel subfamily K member 9 (Homo sapiens, UniProt Q9NPC2); assay: TASK3 (KCNK9) channel inhibitors, thallium flux, SAR follow-up, selectivity assay for TASK1 inhibitor project, cell-based, FluxOR thallium flux, concentration-response (AID 652211); format: functional;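 further: potency is for inhibitors of the channel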
[25] = molecular target: Potassium channel subfamily K member 3 (Homo sapiens, UniProt O14649); assay: TASK1 (KCNK3) potassium channel inhibitors, SAR follow-up, CHO cells, FluxOR thallium flux (AID 652212); format: functional
Chain of Potassium channel subfamily K member 3 (O14649 whole entry): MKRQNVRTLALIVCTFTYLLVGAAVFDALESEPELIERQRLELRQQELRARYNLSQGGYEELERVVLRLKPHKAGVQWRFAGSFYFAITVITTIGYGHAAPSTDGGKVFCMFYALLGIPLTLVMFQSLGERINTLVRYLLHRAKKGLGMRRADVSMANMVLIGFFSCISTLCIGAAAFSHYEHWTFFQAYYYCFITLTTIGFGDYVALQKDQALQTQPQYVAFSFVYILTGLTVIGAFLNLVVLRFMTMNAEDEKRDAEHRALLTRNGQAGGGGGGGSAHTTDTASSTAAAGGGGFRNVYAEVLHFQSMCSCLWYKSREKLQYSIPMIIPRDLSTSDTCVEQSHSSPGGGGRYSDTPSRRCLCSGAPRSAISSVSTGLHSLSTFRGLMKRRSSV

Chain of Disintegrin and metalloproteinase domain-containing protein 17 (P78536 whole entry, the tested form may be a part): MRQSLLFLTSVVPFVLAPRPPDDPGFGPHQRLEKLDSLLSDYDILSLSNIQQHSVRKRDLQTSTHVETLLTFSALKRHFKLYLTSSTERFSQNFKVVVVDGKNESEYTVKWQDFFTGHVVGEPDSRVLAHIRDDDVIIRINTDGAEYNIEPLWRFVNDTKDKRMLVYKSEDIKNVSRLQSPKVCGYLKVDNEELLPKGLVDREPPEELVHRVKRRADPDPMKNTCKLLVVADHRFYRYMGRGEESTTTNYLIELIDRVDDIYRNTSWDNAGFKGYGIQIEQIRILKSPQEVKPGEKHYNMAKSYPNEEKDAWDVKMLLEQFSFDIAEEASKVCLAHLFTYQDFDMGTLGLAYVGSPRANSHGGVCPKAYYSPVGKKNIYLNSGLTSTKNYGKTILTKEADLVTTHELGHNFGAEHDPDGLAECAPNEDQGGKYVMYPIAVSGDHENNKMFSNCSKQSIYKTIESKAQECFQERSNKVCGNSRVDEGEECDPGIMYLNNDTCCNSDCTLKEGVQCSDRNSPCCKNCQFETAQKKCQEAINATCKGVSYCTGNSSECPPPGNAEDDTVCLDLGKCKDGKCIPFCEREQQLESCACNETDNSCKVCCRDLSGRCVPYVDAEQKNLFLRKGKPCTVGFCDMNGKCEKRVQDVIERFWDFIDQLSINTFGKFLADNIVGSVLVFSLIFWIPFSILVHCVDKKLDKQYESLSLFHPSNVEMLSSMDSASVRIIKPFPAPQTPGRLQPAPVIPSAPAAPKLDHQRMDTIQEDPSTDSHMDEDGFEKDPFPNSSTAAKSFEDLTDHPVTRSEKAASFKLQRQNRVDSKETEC
Chain of NAD-dependent protein deacylase sirtuin-5, mitochondrial (Q9NXA8 whole entry, the tested form may be a part): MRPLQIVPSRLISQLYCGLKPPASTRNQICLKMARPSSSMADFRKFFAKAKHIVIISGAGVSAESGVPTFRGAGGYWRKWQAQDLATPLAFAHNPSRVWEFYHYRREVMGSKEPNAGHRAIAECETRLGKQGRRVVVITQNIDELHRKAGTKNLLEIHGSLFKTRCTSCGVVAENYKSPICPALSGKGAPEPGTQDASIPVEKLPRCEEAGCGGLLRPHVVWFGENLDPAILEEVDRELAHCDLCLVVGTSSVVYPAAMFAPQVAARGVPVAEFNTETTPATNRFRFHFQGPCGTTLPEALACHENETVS
Chain of Potassium channel subfamily K member 9 (Q9NPC2 whole entry): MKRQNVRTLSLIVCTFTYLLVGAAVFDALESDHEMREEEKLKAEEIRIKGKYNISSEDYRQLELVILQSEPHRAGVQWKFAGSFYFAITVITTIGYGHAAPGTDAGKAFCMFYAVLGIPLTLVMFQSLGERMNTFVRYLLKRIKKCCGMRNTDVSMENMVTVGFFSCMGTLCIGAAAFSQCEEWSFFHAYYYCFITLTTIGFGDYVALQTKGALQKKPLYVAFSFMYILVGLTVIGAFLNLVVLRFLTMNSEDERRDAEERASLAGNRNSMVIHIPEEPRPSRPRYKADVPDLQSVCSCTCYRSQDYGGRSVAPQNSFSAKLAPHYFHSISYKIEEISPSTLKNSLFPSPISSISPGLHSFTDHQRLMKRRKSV
Chain of Paired box protein Pax-8 (Q06710 whole entry): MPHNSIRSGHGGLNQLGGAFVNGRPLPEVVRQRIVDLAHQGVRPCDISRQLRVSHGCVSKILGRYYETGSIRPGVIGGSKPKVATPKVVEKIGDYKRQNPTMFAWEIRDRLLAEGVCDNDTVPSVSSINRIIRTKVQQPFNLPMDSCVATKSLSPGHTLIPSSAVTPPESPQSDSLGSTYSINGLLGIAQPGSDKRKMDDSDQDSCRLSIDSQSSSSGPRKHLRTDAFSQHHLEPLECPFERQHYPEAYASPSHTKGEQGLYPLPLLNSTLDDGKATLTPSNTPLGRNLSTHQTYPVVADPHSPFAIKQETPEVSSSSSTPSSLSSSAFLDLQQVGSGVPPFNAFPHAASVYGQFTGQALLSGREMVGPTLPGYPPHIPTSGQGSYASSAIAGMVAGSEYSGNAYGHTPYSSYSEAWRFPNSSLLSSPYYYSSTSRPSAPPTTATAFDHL

Structure (SMILES): CCc1ccccc1-n1c(SCC(=O)NC)nnc1-c1ccco1
AC50 [1]: > 30 µM (inactive)

Structure (SMILES): CCc1ccc(-c2cn(C3CCCCC3)c(=S)[nH]2)cc1
IC50 [2]: > 69.5 µM (inactive)

Structure (SMILES): Cc1cc(NC(=O)CSc2nc3c(cc2C#N)CCC3)no1
EC50 [3]: 0.83 µM (active)
EC50 [4]: > 67.6 µM (inactive)

Structure (SMILES): CC(C)(C)c1ccc(S(=O)(=O)NC(=O)C2(C)CCN2C(=O)C2CCCCC2)cc1 (centres undefined)
AC50 [1]: > 30 µM (inactive)

Structure (SMILES): COc1ccccc1C#Cc1ccc([C@H]2[C@@H](CO)N(C(=O)C3CCCCC3)[C@H]2C#N)cc1
AC50 (Paired box protein Pax-8): 3.4 µM (active)
AC50 [7]: 9.82 µM (active)
AC50 [8]: 36.4 µM (active)
AC50 [9]: 42.5 µM (active)
AC50 [10]: 18.9 µM (active)
AC50 [11]: 6.15 µM (active)
AC50 [12]: 44.8 µM (active)
AC50 [13]: 63.6 µM (active)
AC50 [14]: 20.6 µM (active)
AC50 [15]: 28.6 µM (active)
AC50 [16]: 60.8 µM (active)
AC50 [17]: 12.2 µM (active)
AC50 [18]: 1.19 µM (active)
AC50 [19]: 35.2 µM (active)
AC50 [20]: 1.36 µM (active)
AC50 [21]: 0.684 µM (active)
AC50 [22]: > 39 µM (inactive)
AC50 [23]: 1.53 µM (active)

Results, then the compound that gave them:

IC50 [5]: 8.46 µM (active)
EC50 [4]: > 67.4 µM (inactive)
Structure (SMILES): Nc1ccc2c(c1)Cc1cc(N)c(Cl)cc1-2

IC50 [6]: 11.3 µM (inactive)
IC50 [2]: > 69.6 µM (inactive)
Structure (SMILES): CC1(Cc2ccc(C(F)(F)F)o2)C(=O)Nc2ccc(-c3cccc(C(F)(F)F)c3)cc21 (centres undefined)

IC50 [24]: 30.5 µM (active)
IC50 [25]: 1.32 µM (active)
Structure (SMILES): CCOc1ccccc1NC(=O)c1cccc(NC(=O)C(C)(C)C)c1
